Measurements from patent US20090068125A1, “TREATMENT FOR MUCOSITIS” (HEPTAGEN LTD, priority 2005, published 2009).

Legend:
[1] = cited from earlier work
[2] = system: human epidermal keratinocytes (HEK); assay: Inhibition of human epidermal keratinocyte proliferation (AlamarBlue reduction); format: cell-based; details: two typical experiments (FIG. 1), 0.1 to 100 microM adenosine, 2 days incubation, AlamarBlue fluorescence
Description: Cryopreserved human epidermal keratinocytes (HEK) isolated from skin were obtained from TCS Cellworks, Botolph Claydon, Buckingham, MK18 2LR, UK. Cells were maintained in EpiLife, a defined basal medium designed for human keratinocytes supplemented with selected hormones and growth factors (TCS Cellworks). […] Proliferating cultures were trypsinised, harvested, treated with a trypsin inhibitor and resuspended in growth medium. The viable cells were counted then replated into 24 or 96 well cell culture plates at a density of approximately 2,500 cells/cm2. Cells were incubated overnight at 37° C. at 5% CO2 to allow recovery, the spent medium aspirated from the wells and replaced with fresh growth medium in the presence or absence of adenosine. Adenosine was obtained from Sigma-Aldrich and made up as a 10 mM stock solution in DMSO. Serial dilutions were made in the growth medium and added to the cells to give final concentrations ranging from 0.1 to 100 microM, and the cells returned to the incubator for 2 days. AlamarBlue 2% v/v was added to the wells and reduction measured fluorometrically using a Molecular Dynamics BioLumin 9600 microtitre plate reader using excitation wavelength at 530 nm and […] wavelength at 590 nm. Control experiments in which compounds were not added were carried out to examine the normal time-scale of proliferation. […]

## Nc1ncnc2c1ncn2[C@@H]1O[C@H](CO)[C@@H](O)[C@H]1O [Adenosine]
[1]
  half-life in the circulation: < 10 s
[2]; Homo sapiens, Keratinocyte, 48 h
  EC50: 1700 nM
[2]
  EC50: 1100 nM
